Laboratory results: US20080058373A1, “Compositions and Methods for Treating or Preventing Glaucoma or Progression Thereof” (priority 2006, published 2008)
Values joined by “and” are separate entries in the source; they are usually repeats but may differ in a detail not shown here. Identical values can stand only once.

Legend:
Assay type in all cases: in vivo
[1] = tested on: rabbit eye (anterior chamber paracentesis); test: Pupillary diameter measurement, rabbit paracentesis model; settings: for Pupillary diameter T1: −180 min: 50 μl drops, −180 min (basal); for Pupillary diameter T1: −180 min / Pupillary diameter T2: −5 min / Pupillary diameter T3: +115 min: single eyes; for Pupillary diameter T2: −5 min: 5 min before the first paracentesis; for Pupillary diameter T3: +115 min: 5 min before the second paracentesis; for Pupillary diameter Mean Δ(T3 − T1): group mean, n=8 eyes
Description: (§1) Each rabbit was placed in a restraint device and tagged with the alphanumeric code. The formulations were instilled (50 μl) into the conjunctival sac of both eyes 180, 120, 90 and 30 min before the first paracentesis; then 15, 30, 90 min after the first paracentesis. To perform the first paracentesis the animals were anaesthetized by intravenous injection of 5 mg/kg Zoletil® (Virbac; 2.5 mg/kg tiletamine HCl and 2.5 mg/kg zolazepam HCl) and one drop of local anesthetic (Novesina®, Novartis) was administered to the eye. Anterior chamber paracentesis was performed with a 26 G needle attached to a tuberculin syringe; the needle was introduced into the anterior chamber through the cornea, taking care not to damage the tissues. Two hours after the first paracentesis, the animals were sacrificed with 0.4 ml Tanax® (Intervet International B.V.) and the second paracentesis was performed. About 100 μl of aqueous humor were removed at the second paracentesis. Aqueous humor was immediately split in four aliquots and stored at −80° C. until analysis. Then both eyes were enucleated and the iris-ciliary body was carefully excised, placed in polypropylene tubes, and stored at −80° C. until analysis.
The pupillary diameter of both eyes was measured with a Castroviejo caliper 180 min and 5 min before the first paracentesis and 5 min before the second paracentesis.

[2] = tested on: Leukocytes (PMN); test: Leukocytes (PMN) measurement in aqueous humor, rabbit paracentesis model; settings: for PMN numbers in aqueous humor, Mean: second paracentesis, group mean
Description: as §1
For the determination of the number of leukocytes we used a haemocytometer (Improved Neubauer Chamber; Bright-line, Hausser Scientific) and a Polyvar 2 microscope (Reichert-Jung).

[3] = tested on: Myeloperoxidase (MPO); test: Myeloperoxidase (MPO) activity in iris-ciliary body, rabbit paracentesis model; settings: for MPO activity in iris-ciliary body, Mean / MPO activity in iris-ciliary body: samples collected after the second paracentesis; for MPO activity in iris-ciliary body, Mean: group mean; for Δ/min (mean of the slope of the line recorded every 15 sec for 5 min) / MPO activity in iris-ciliary body: individual eyes
Description: 3.9 g of NaH2PO4 2H2O were dissolved in a volumetric flask to 500 ml with water. The pH was adjusted to pH=6 with 3N NaOH.
0.5 g of hexa-decyl-trimethyl-ammonium bromide was dissolved in 100 ml phosphate buffer.
The solution was prepared freshly. Ten microliters of H2O2 (30 wt. %) were diluted to 1 ml with water (solution A). 7.5 mg o-dianisidine 2HCl was dissolved in 45 ml of phosphate buffer and 75 μl of solution A were added.
as §1
The activity of MPO was measured as previously described by Williams et al.[5] The iris-ciliary bodies were carefully dried, weighed and immersed in 1 ml of hexa-decyl-trimethyl-ammonium bromide solution. Then, the samples were sonicated for 10 sec on ice by a ultrasound homogenizer (HD 2070, Bandelin electronic), freeze-thawed three times, sonicated for 10 sec and centrifuged at 14,000 g for 10 min to remove cellular debris. An aliquot of the supernatant (40-200 μl) was diluted to 3 ml with the o-dianisidine 2HCl/H2O2 solution. The change in absorbance at 460 nm was continuously monitored for 5 min by a spectrophotometer (UV/Vis Spectrometer Lambda EZ 201; Perkin Elmer). The slope of the line (Δ/min) was determined for each sample and used to calculate the number of units of MPO in the tissue as follows:
Values were expressed as units of MPO/g of tissue.

[4] = tested on: rabbit eye (anterior chamber paracentesis); test: Clinical evaluation by slit lamp (clinical score), rabbit paracentesis model; design: key to Clinical Score −180 min / Clinical Score −5 min / Clinical Score +115 min: 0=normal; 1=discrete dilatation of iris and conjunctival vessels; 2=moderate dilatation of iris and conjunctival vessels; 3=intense iridal hyperemia with flare in the anterior chamber; 4=intense iridal hyperemia with flare in the anterior chamber and presence of fibrinous exudates; settings: for Clinical Score −5 min: 5 min before the first paracentesis; for Clinical Score −5 min / Clinical Score +115 min / Clinical Score −180 min: single eyes; for Clinical Score +115 min: 5 min before the second paracentesis
[5] = tested on: Prostaglandin E2 (PGE2); test: Prostaglandin E2 (PGE2) measurement in aqueous humor, rabbit paracentesis model; settings: second paracentesis, group mean
Description: as §1
For the quantitative determination of PGE2 in the aqueous humor we used the PGE2 Immunoassay kit (R&D Systems; Cat.No. KGE004; Lot.No. 240010). Eleven microliters or 16 μl of aqueous humor were diluted to 110 μl or 160 μl with the calibrator diluent solution provided with the kit. One hundred microliters of samples and of standards were load into a 96-well plate and recorded in a plate layout. Samples were treated following the assay procedure described in the kit. A microplate reader (GDV, Italy; model DV 990 B/V6) set at 450 nm (wavelength correction at 540 nm) was used for making the calibration and analyzing the samples.

[6] = tested on: protein in aqueous humor; test: Protein measurement in aqueous humor, rabbit paracentesis model; settings: for Protein levels in aqueous humor (raw data): samples collected at the second paracentesis, single eyes; for Protein levels in aqueous humor, Mean: second paracentesis, group mean
Description: as §1
For protein concentration determination in the aqueous humor we used the Protein Quantification Kit (Fluka; Cat.No. 77371; Lot.No. 1303129). Five microliters of aqueous humor were diluted to 100 μl with water. Twenty microliters of samples and of standards were load into a 96-well plate and recorded in a plate layout. Samples were treated following the assay procedure described in the kit. A microplate reader (GDV, Italy; model DV 990 B/V6) set at 670 nm was used for making the calibration and analyzing the samples.

[7] = 0.5% topical, +115 min, N=8 eyes

SMILES: CC(C(=O)O)c1ccc(-c2ccccc2)c(F)c1 (stereo not drawn) [flurbiprofen]
- Pupillary diameter T1: −180 min ([1]; 0.03% topical, listed as F): 5.0 mm and 7.0 mm and 6.0 mm and 5.5 mm
- Pupillary diameter T2: −5 min ([1]; 0.03% topical, listed as F): 6.0 mm and 6.5 mm and 7.0 mm and 5.5 mm
- Pupillary diameter T3: +115 min ([1]; 0.03% topical, listed as F): 4.0 mm and 3.5 mm and 5.5 mm and 5.0 mm and 4.5 mm and 6.0 mm
- Pupillary diameter Mean Δ(T3 − T1) ([1]; 0.03% topical): −0.9 mm
- PMN numbers in aqueous humor, Mean ([2]; 0.03% topical): 30.000 number/μl
- MPO activity in iris-ciliary body, Mean ([3]; 0.03% topical): 0.906 MPO Unit/g
- Δ/min (mean of the slope of the line recorded every 15 sec for 5 min) ([3]; 0.03% treatment, 100 μl supernatant aliquot diluted to 3 ml, listed as F): 0.049 and 0.082 and 0.013 and 0.031 and 0.038 and 0.027 and 0.033 and 0.061
- MPO activity in iris-ciliary body ([3]; 0.03% treatment, listed as F): 1.10 Unit/g and 1.70 Unit/g and 0.34 Unit/g and 0.75 Unit/g and 0.74 Unit/g and 0.63 Unit/g and 0.73 Unit/g and 1.27 Unit/g
- Clinical Score −5 min ([4]; 0.03% topical): 0
- Clinical Score +115 min ([4]; 0.03% topical): 2
- Percentage of eyes with clinical score 2 ([4]; 0.03% topical, +115 min, N=8 eyes): 100%
- Percentage of eyes with clinical score 0 ([4]; 0.03% topical, −5 min, N=8 eyes): 100%
- Percentage of eyes with clinical score 0 ([4]; 0.03% topical, −180 min (basal), N=8 eyes): 100%
- Clinical Score −180 min ([4]; 0.03% topical, −180 min (basal)): 0
- Levels of PGE2 in aqueous humor, Mean ([5]; 0.03% topical): 1.189 ng/mL
- Protein levels in aqueous humor (raw data) ([6]; 0.03% topical, listed as F): 20.78 mg/mL and 28.80 mg/mL and 23.41 mg/mL and 20.21 mg/mL and 17.53 mg/mL and 15.12 mg/mL and 20.52 mg/mL
- Protein levels in aqueous humor, Mean ([6]; 0.03% topical): 20.910 mg/mL

SMILES: CCOC(=O)O[C@]1(C(=O)OCCl)CC[C@H]2[C@@H]3CCC4=CC(=O)C=C[C@]4(C)[C@H]3[C@@H](O)C[C@@]21C [loteprednol etabonate]
- Pupillary diameter T1: −180 min ([1]; 0.5% topical, listed as LE): 6.0 mm and 6.5 mm
- Pupillary diameter T2: −5 min ([1]; 0.5% topical, listed as LE): 6.0 mm and 6.5 mm
- Pupillary diameter T3: +115 min ([1]; 0.5% topical, listed as LE): 4.5 mm and 5.0 mm and 5.5 mm and 6.0 mm
- Pupillary diameter Mean Δ(T3 − T1) ([1]; 0.5% topical): −0.9 mm
- PMN numbers in aqueous humor (raw data) ([2]; 0.5% topical, samples collected at the second paracentesis, single eyes, listed as LE): 40 number/μl and 20 number/μl and 30 number/μl
- PMN numbers in aqueous humor, Mean ([2]; 0.5% topical): 28.333 number/μl
- MPO activity in iris-ciliary body, Mean ([3]; 0.5% topical): 0.661 MPO Unit/g
- Δ/min (mean of the slope of the line recorded every 15 sec for 5 min) ([3]; 0.5% treatment, 200 μl supernatant aliquot diluted to 3 ml, listed as LE): 0.026 and 0.053 and 0.067 and 0.055 and 0.076 and 0.096
- MPO activity in iris-ciliary body ([3]; 0.5% treatment, listed as LE): 0.30 Unit/g and 0.51 Unit/g and 0.81 Unit/g and 0.60 Unit/g and 0.73 Unit/g and 1.01 Unit/g
- Clinical Score −5 min ([4]; 0.5% topical): 0
- Clinical Score +115 min ([4]; 0.5% topical, listed as LE): 2 and 1
- Percentage of eyes with clinical score 1 [4, 7]: 75%
- Percentage of eyes with clinical score 2 [4, 7]: 25%
- Percentage of eyes with clinical score 0 ([4]; 0.5% topical, −5 min, N=8 eyes): 100%
- Percentage of eyes with clinical score 0 ([4]; 0.5% topical, −180 min (basal), N=8 eyes): 100%
- Clinical Score −180 min ([4]; 0.5% topical, −180 min (basal)): 0
- Levels of PGE2 in aqueous humor, Mean ([5]; 0.5% topical): 0.672 ng/mL
- Protein levels in aqueous humor (raw data) ([6]; 0.5% topical, listed as LE): 36.14 mg/mL and 39.10 mg/mL and 34.69 mg/mL and 26.10 mg/mL and 26.30 mg/mL and 28.16 mg/mL and 40.90 mg/mL and 39.85 mg/mL
- Protein levels in aqueous humor, Mean ([6]; 0.5% topical): 33.905 mg/mL
